ChEMBL document CHEMBL3044825, “Synthesis and in vitro microbial activities of amides of pyridoquinolone” (2011)

Assays:
Format in all cases: functional
Details in all cases: read-out: IZ
Candida albicans = assay: Antifungal activity against Candida albicans at 100 ug/ml by cup-plate method
Bacillus subtilis = assay: Antibacterial activity against Bacillus subtilis at 100 ug/ml by cup plate method
Staphylococcus aureus = assay: Antibacterial activity against Staphylococcus aureus at 100 ug/ml by cup-plate method
Pseudomonas aeruginosa = assay: Antibacterial activity against Pseudomonas aeruginosa at 100 ug/ml by cup-plate method
Escherichia coli = assay: Antibacterial activity against Escherichia coli at 100 ug/ml by cup-plate method

## Cc1ccccc1NC(=S)NC(=O)c1cn(CCO)c2c(cc(O)c3ncccc32)c1=O
Candida albicans
  zone of inhibition at 100 µg/mL: 0 mm
Bacillus subtilis
  zone of inhibition at 100 µg/mL: 7 mm
Staphylococcus aureus
  zone of inhibition at 100 µg/mL: 5 mm
Pseudomonas aeruginosa
  zone of inhibition at 100 µg/mL: 0 mm
Escherichia coli
  zone of inhibition at 100 µg/mL: 6 mm

## O=C(Nc1ccc(S(=O)(=O)Nc2cccc(Cl)c2)cc1)c1cn(CCO)c2c(cc(O)c3ncccc32)c1=O
Candida albicans
  zone of inhibition at 100 µg/mL: 3 mm
Bacillus subtilis
  zone of inhibition at 100 µg/mL: 9 mm
Staphylococcus aureus
  zone of inhibition at 100 µg/mL: 8 mm
Pseudomonas aeruginosa
  zone of inhibition at 100 µg/mL: 8 mm
Escherichia coli
  zone of inhibition at 100 µg/mL: 9 mm

## Cc1ccc(NC(=O)c2cn(CCO)c3c(cc(Cl)c4ncccc43)c2=O)cc1
Candida albicans
  zone of inhibition at 100 µg/mL: 0 mm
Bacillus subtilis
  zone of inhibition at 100 µg/mL: 7 mm
Staphylococcus aureus
  zone of inhibition at 100 µg/mL: 5 mm
Pseudomonas aeruginosa
  zone of inhibition at 100 µg/mL: 5 mm
Escherichia coli
  zone of inhibition at 100 µg/mL: 4 mm

## O=C(O)c1cn(C2CC2)c2cc(N3CCNCC3)c(F)cc2c1=O [CIPROFLOXACIN]
Bacillus subtilis
  zone of inhibition at 100 µg/mL: 16 mm
Staphylococcus aureus
  zone of inhibition at 100 µg/mL: 17 mm
Pseudomonas aeruginosa
  zone of inhibition at 100 µg/mL: 17 mm

## O=C(Nc1cccc([N+](=O)[O-])c1)c1cn(CCO)c2c(cc(O)c3ncccc32)c1=O
Candida albicans
  zone of inhibition at 100 µg/mL: 2 mm
Bacillus subtilis
  zone of inhibition at 100 µg/mL: 8 mm
Staphylococcus aureus
  zone of inhibition at 100 µg/mL: 7 mm
Pseudomonas aeruginosa
  zone of inhibition at 100 µg/mL: 10 mm
Escherichia coli
  zone of inhibition at 100 µg/mL: 8 mm

## Cc1ccc(NC(=S)NC(=O)c2cn(CCO)c3c(cc(Cl)c4ncccc43)c2=O)cc1
Candida albicans
  zone of inhibition at 100 µg/mL: 0 mm
Bacillus subtilis
  zone of inhibition at 100 µg/mL: 6 mm
Staphylococcus aureus
  zone of inhibition at 100 µg/mL: 6 mm
Pseudomonas aeruginosa
  zone of inhibition at 100 µg/mL: 0 mm
Escherichia coli
  zone of inhibition at 100 µg/mL: 6 mm

## O=C(NC(=S)Nc1ccc(O)cc1)c1cn(CCO)c2c(cc(O)c3ncccc32)c1=O
Candida albicans
  zone of inhibition at 100 µg/mL: 0 mm
Bacillus subtilis
  zone of inhibition at 100 µg/mL: 7 mm
Staphylococcus aureus
  zone of inhibition at 100 µg/mL: 6 mm
Pseudomonas aeruginosa
  zone of inhibition at 100 µg/mL: 6 mm
Escherichia coli
  zone of inhibition at 100 µg/mL: 6 mm

## O=C(Nc1ccc(Cl)cc1)c1cn(CCO)c2c(cc(O)c3ncccc32)c1=O
Candida albicans
  zone of inhibition at 100 µg/mL: 5 mm
Bacillus subtilis
  zone of inhibition at 100 µg/mL: 10 mm
Escherichia coli
  zone of inhibition at 100 µg/mL: 10 mm

## COc1ccccc1NC(=S)NC(=O)c1cn(CCO)c2c(cc(O)c3ncccc32)c1=O
Candida albicans
  zone of inhibition at 100 µg/mL: 0 mm
Bacillus subtilis
  zone of inhibition at 100 µg/mL: 0 mm
Staphylococcus aureus
  zone of inhibition at 100 µg/mL: 4 mm
Pseudomonas aeruginosa
  zone of inhibition at 100 µg/mL: 4 mm
Escherichia coli
  zone of inhibition at 100 µg/mL: 0 mm

## O=C(NC(=S)Nc1ccccc1)c1cn(CCO)c2c(cc(Cl)c3ncccc32)c1=O
Candida albicans
  zone of inhibition at 100 µg/mL: 3 mm
Bacillus subtilis
  zone of inhibition at 100 µg/mL: 11 mm
Staphylococcus aureus
  zone of inhibition at 100 µg/mL: 9 mm
Pseudomonas aeruginosa
  zone of inhibition at 100 µg/mL: 9 mm
Escherichia coli
  zone of inhibition at 100 µg/mL: 10 mm

## Cc1cccc(NS(=O)(=O)c2ccc(NC(=O)c3cn(CCO)c4c(cc(O)c5ncccc54)c3=O)cc2)c1
Candida albicans
  zone of inhibition at 100 µg/mL: 5 mm
Bacillus subtilis
  zone of inhibition at 100 µg/mL: 12 mm
Staphylococcus aureus
  zone of inhibition at 100 µg/mL: 11 mm
Pseudomonas aeruginosa
  zone of inhibition at 100 µg/mL: 11 mm
Escherichia coli
  zone of inhibition at 100 µg/mL: 10 mm

## O=C(Nc1ccccc1[N+](=O)[O-])c1cn(CCO)c2c(cc(Cl)c3ncccc32)c1=O
Candida albicans
  zone of inhibition at 100 µg/mL: 4 mm
Bacillus subtilis
  zone of inhibition at 100 µg/mL: 10 mm

## O=C(Nc1ccc(S(=O)(=O)Nc2ccccc2)cc1)c1cn(CCO)c2c(cc(O)c3ncccc32)c1=O
Candida albicans
  zone of inhibition at 100 µg/mL: 3 mm
Bacillus subtilis
  zone of inhibition at 100 µg/mL: 8 mm
Staphylococcus aureus
  zone of inhibition at 100 µg/mL: 9 mm
Pseudomonas aeruginosa
  zone of inhibition at 100 µg/mL: 10 mm
Escherichia coli
  zone of inhibition at 100 µg/mL: 9 mm

## Cc1ccccc1NC(=S)NC(=O)c1cn(CCO)c2c(cc(Cl)c3ncccc32)c1=O
Candida albicans
  zone of inhibition at 100 µg/mL: 2 mm
Bacillus subtilis
  zone of inhibition at 100 µg/mL: 8 mm
Staphylococcus aureus
  zone of inhibition at 100 µg/mL: 6 mm
Pseudomonas aeruginosa
  zone of inhibition at 100 µg/mL: 4 mm
Escherichia coli
  zone of inhibition at 100 µg/mL: 0 mm

## COc1ccccc1NC(=S)NC(=O)c1cn(CCO)c2c(cc(Cl)c3ncccc32)c1=O
Candida albicans
  zone of inhibition at 100 µg/mL: 0 mm
Bacillus subtilis
  zone of inhibition at 100 µg/mL: 6 mm
Staphylococcus aureus
  zone of inhibition at 100 µg/mL: 0 mm
Pseudomonas aeruginosa
  zone of inhibition at 100 µg/mL: 3 mm
Escherichia coli
  zone of inhibition at 100 µg/mL: 5 mm

## O=C(NC(=S)Nc1ccccc1[N+](=O)[O-])c1cn(CCO)c2c(cc(Cl)c3ncccc32)c1=O
Candida albicans
  zone of inhibition at 100 µg/mL: 4 mm
Bacillus subtilis
  zone of inhibition at 100 µg/mL: 9 mm
Escherichia coli
  zone of inhibition at 100 µg/mL: 10 mm

## O=C(Nc1ccccc1)c1cn(CCO)c2c(cc(O)c3ncccc32)c1=O
Candida albicans
  zone of inhibition at 100 µg/mL: 1 mm
Bacillus subtilis
  zone of inhibition at 100 µg/mL: 6 mm
Staphylococcus aureus
  zone of inhibition at 100 µg/mL: 7 mm
Pseudomonas aeruginosa
  zone of inhibition at 100 µg/mL: 8 mm
Escherichia coli
  zone of inhibition at 100 µg/mL: 8 mm

## Cc1ccccc1NS(=O)(=O)c1ccc(NC(=O)c2cn(CCO)c3c(cc(Cl)c4ncccc43)c2=O)cc1
Candida albicans
  zone of inhibition at 100 µg/mL: 3 mm
Bacillus subtilis
  zone of inhibition at 100 µg/mL: 10 mm
Staphylococcus aureus
  zone of inhibition at 100 µg/mL: 9 mm
Pseudomonas aeruginosa
  zone of inhibition at 100 µg/mL: 9 mm
Escherichia coli
  zone of inhibition at 100 µg/mL: 9 mm

## O=C(Nc1ccccc1[N+](=O)[O-])c1cn(CCO)c2c(cc(O)c3ncccc32)c1=O
Candida albicans
  zone of inhibition at 100 µg/mL: 4 mm
Bacillus subtilis
  zone of inhibition at 100 µg/mL: 11 mm
Staphylococcus aureus
  zone of inhibition at 100 µg/mL: 10 mm
Pseudomonas aeruginosa
  zone of inhibition at 100 µg/mL: 9 mm
Escherichia coli
  zone of inhibition at 100 µg/mL: 9 mm

## COc1ccccc1NC(=O)c1cn(CCO)c2c(cc(O)c3ncccc32)c1=O
Candida albicans
  zone of inhibition at 100 µg/mL: 1 mm
Bacillus subtilis
  zone of inhibition at 100 µg/mL: 8 mm
Staphylococcus aureus
  zone of inhibition at 100 µg/mL: 6 mm
Pseudomonas aeruginosa
  zone of inhibition at 100 µg/mL: 0 mm
Escherichia coli
  zone of inhibition at 100 µg/mL: 6 mm
